Paper PMC4431585, “Identification and Characterization of a Small-Molecule Inhibitor of Death-Associated Protein Kinase 1” (Chembiochem, 2014)
Entries after “also recorded” stand apart in the source; their conditions may differ.

What was measured:
[1] = target: T1, DAPK1 (Homo sapiens, UniProt P53355); assay: Caliper microfluidics capillary electrophoresis high-throughput enzymatic assay for DAPK1; type: biochemical
T1 construct: First the catalytic domain of DAPK1 (residues 1–285) was cloned,[14] expressed in Escherichia coli, and purified; made in house; host or cells: Escherichia coli
T1 sequence (P53355 1-285): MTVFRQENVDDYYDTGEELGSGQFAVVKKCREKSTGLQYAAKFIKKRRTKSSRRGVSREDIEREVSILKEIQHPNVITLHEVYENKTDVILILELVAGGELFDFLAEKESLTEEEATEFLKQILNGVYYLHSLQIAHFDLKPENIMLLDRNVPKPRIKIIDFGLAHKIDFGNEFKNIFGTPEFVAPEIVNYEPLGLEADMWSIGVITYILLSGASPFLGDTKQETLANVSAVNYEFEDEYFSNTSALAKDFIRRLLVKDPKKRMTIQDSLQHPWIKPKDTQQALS
Description: For this, we established a high-throughput enzymatic screening assay for DAPK1. […] This peptide was used in a Caliper microfluidics capillary electrophoresis assay, which separates phosphorylated peptide product from the non-phosphorylated peptides in microcapillaries. The fluorescently labeled peptide enabled quantification in real time and thus determination of reaction velocities.

[2] = target: PIM1 (Homo sapiens, UniProt P11309); assay: Kinase selectivity screening, PIM1; type: biochemical
Chain of PIM1 (P11309 whole entry, species assumed): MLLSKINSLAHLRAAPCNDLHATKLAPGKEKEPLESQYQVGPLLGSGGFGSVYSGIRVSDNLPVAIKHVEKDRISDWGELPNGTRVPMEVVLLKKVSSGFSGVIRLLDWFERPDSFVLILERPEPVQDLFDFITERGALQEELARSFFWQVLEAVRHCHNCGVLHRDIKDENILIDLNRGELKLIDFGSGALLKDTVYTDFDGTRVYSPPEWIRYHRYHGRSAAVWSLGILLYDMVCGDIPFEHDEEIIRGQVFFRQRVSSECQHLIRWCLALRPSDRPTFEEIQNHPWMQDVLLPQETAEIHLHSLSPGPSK
Description: (§1) Compound 6 was tested in primary screening against a number of other kinases (SRC, BLK, AKT3, JAK2, PAK4, PAK7, PIM1, PIM2, CAMKI, and CAMKII); 60 % inhibition at 10 μM compound was used as the cut-off limit. […] Thus 6 was clearly an interesting compound.

[3] = target: JAK2 (Homo sapiens, UniProt O60674); assay: Kinase selectivity screening, JAK2; type: biochemical
Chain of JAK2 (O60674 whole entry, species assumed): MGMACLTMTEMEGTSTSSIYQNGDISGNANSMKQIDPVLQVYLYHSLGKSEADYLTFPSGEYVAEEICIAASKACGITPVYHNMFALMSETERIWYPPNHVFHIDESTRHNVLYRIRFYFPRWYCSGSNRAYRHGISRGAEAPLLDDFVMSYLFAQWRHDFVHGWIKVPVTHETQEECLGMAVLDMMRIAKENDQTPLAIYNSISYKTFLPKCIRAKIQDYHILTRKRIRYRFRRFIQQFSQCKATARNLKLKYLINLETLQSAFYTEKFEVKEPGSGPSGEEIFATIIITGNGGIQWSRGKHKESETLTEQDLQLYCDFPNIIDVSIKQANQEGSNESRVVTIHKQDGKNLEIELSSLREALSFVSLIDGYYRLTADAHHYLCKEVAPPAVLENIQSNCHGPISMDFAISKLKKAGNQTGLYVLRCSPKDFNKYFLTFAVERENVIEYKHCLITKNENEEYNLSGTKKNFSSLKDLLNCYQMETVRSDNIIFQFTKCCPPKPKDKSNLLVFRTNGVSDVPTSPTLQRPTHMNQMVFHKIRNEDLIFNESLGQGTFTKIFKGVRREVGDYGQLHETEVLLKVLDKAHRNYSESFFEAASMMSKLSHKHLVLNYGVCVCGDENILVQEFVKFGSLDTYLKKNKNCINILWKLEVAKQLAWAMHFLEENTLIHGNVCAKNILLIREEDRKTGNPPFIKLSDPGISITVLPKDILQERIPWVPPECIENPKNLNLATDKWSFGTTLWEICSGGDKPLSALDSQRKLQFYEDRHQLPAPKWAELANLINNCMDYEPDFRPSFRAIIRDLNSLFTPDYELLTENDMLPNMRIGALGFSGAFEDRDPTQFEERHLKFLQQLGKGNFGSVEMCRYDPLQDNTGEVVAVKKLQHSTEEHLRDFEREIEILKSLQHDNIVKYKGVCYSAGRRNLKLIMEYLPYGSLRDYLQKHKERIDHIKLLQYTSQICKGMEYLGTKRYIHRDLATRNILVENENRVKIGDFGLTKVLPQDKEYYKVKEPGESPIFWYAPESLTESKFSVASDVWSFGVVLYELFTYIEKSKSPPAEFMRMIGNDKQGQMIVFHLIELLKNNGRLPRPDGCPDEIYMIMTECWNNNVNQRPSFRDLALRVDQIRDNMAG
Description: as §1

[4] = target: PAK7 (Homo sapiens, UniProt Q9P286); assay: Kinase selectivity screening, PAK7; type: biochemical
Chain of PAK7 (Q9P286 whole entry, species assumed): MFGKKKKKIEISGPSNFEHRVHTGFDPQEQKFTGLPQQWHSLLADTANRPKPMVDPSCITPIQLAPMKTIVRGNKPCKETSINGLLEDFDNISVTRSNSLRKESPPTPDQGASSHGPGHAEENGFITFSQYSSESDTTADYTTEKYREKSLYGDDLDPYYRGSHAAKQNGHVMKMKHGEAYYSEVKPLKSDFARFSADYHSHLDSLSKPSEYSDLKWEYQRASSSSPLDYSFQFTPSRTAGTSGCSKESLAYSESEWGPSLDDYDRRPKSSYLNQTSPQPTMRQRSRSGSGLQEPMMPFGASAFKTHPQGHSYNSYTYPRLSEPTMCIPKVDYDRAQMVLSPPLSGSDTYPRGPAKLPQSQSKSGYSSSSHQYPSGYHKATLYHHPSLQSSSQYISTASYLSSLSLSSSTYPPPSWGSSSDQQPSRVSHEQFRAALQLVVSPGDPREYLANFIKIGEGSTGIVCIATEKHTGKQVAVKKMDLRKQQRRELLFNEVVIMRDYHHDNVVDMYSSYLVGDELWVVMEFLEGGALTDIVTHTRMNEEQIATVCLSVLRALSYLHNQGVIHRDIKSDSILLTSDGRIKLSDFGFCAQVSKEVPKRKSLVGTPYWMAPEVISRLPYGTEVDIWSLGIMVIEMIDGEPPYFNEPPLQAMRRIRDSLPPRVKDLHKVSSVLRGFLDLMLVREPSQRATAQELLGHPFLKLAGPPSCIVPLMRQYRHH
Description: as §1

[5] = target: SRC (Homo sapiens, UniProt P12931); assay: Kinase selectivity screening, SRC; type: biochemical
Chain of SRC (P12931 whole entry, species assumed): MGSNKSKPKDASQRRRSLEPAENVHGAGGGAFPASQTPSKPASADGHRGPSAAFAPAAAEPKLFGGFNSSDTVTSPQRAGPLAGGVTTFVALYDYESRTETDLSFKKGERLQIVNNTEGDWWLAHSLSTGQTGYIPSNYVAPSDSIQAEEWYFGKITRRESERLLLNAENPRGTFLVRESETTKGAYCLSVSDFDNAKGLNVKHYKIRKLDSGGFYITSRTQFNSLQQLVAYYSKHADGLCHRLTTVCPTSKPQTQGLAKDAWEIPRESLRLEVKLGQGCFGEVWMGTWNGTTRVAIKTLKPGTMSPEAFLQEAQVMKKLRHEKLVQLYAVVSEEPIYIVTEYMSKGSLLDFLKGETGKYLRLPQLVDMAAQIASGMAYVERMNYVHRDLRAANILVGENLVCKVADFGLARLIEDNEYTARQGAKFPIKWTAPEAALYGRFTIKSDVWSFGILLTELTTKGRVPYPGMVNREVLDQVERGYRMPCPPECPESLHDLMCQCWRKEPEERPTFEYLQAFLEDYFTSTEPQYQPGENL
Description: as §1

[6] = system: CAMKII; assay: Kinase selectivity primary screening, CAMKII; type: biochemical; settings: 60 % inhibition at 10 μM compound as cut-off limit
Description: as §1

[7] = target: T2, catalytic domain of DAPK1 (residues 1–285) (Homo sapiens, UniProt P53355); assay: Isothermal titration calorimetry (ITC); type: binding; settings: n=4, read-out: equilibrium dissociation constant (Kd)
T2 construct: First the catalytic domain of DAPK1 (residues 1–285) was cloned,[14] expressed in Escherichia coli, and purified; made in house; host or cells: Escherichia coli
T2 sequence (P53355 1-285): as the sequence (P53355 1-285) above
Description: as §1
Figure 3 Representative ITC of the catalytic domain of DAPK1 (residues 1–285) into 6.

[8] = target: T1, DAPK1; assay: In vitro phosphorylation assay with DAPK1 (analytical HPLC); type: biochemical; settings: for phosphorylation by DAPK1 (peptide as substrate): peptide 50 μM, ATP 100 μM, n=3
Text: CaMKII and DAPK1 share a number of notable structural and functional properties. In particular both kinases harbor a calmodulin-binding sequence and an autoregulatory domain (ARD) next to the catalytic domain and are therefore regulated by calmodulin (or proteins with calmodulin-like domains).[10] There are also notable differences between the two kinases, for example DAPK1 is active only in its non-phosphorylated form,[11] whereas activation of CaMKII is more complex.[12] […] Thus it is proposed that phosphorylation of Ser1303 and co-localization are responsible for the regulation of calcium influx by NMDA receptors (Figure 1). To investigate the mechanistic details of DAPK1/NMDA receptor interactions further, including differences between GluN2A and GluN2B, we used in vitro phosphorylation assays. First the catalytic domain of DAPK1 (residues 1–285) was cloned,[14] expressed in Escherichia coli, and purified; the reference substrate Peptide38[2d] ([…]) and the 13-mer peptide N2B13 (1, GluN2B1292–1304, […]; Figure 2 A) were prepared. […] Thus, clearly Ser1303 in 1 is not phosphorylated by DAPK1 in vitro.
(§2) Figure 2 Comparison of peptide substrates containing Ser1303 (GluN2B) or Ser1291 (GluN2A). A) Alignment of peptides used in in vitro phosphorylation studies. B) Phosphorylation by DAPK1. C) Phosphorylation by CaMKII. Control substrates are shown with dashed lines. Degrees of phosphorylation were assessed by analytical HPLC (n=3, mean±SD). Concentration: peptide 50 μM, ATP 100 μM, kinase concentration was adjusted to fit the timescale. For further details see the Supporting Information.
(§3) This prompted us to examine related peptides derived from GluN2B and GluN2A (Figure 2 A) and we compared in vitro phosphorylation of these peptides by using both recombinant DAPK1 and CaMKII. […] Next we studied the corresponding 13- and 23-mer GluN2A peptides, N2A13 (4, GluN2A1280–1292, […]) and N2A23 (5, GluN2A1280–1302, […]); for both, Ser1291 corresponds to Ser1303 in GluN2B.

[9] = system: CAMKII; assay: In vitro phosphorylation assay with CaMKII (analytical HPLC); type: biochemical; settings: peptide 50 μM, ATP 100 μM, n=3
Description: as §2, §3

| Compound | phosphorylation by DAPK1 (peptide as substrate) [8] | phosphorylation by CaMKII (peptide as substrate) [9] | further results |
| --- | --- | --- | --- |
| Nc1ncnc2c1ncn2[C@@H]1O[C@H](COP(=O)(O)OP(=O)(O)OP(=O)(O)O)[C@@H](O)[C@H]1O [ATP] | – | – | Km ([1]; DAPK1, read-out: Km for ATP): 1240 nM |
| COc1cc(-c2ccc3ncc(-c4cccc(C(=O)NCCN(C)C)c4)n3n2)ccc1O [Compound 6] | – | – | IC50 ([1]; DAPK1, Caliper assay, 5FAM-Peptide38 substrate, ATP approximately 2×Km): 247 nM; IC50 [2]: 1600 nM; IC50 [3]: 1800 nM; IC50 [4]: 5.6 µM; IC50 [5]: 150 nM; primary screening [6]: did not to pass the primary screening; Kd [7]: 240 ± 90 nM; inhibition in the in vitro phosphorylation assay ([8]; DAPK1): showed inhibition |
| KKNRKKNRNKLRRQHAYDTFVDLQKEE [Peptide 3, N2B23 with Ser1303 substituted with Ala] | prevented phosphorylation | neither the longer GluN2B peptide, N2B23 (2), nor its Ala mutant, 3, was phosphorylated | – |
| KKNRKKNRNKLRRQHSYDTFVDLQKEE [Peptide 2, 23-mer GluN2B peptide with ten additional C-terminal amino acids] | phosphorylation to a degree similar to that for the reference substrate | neither the longer GluN2B peptide, N2B23 (2), nor its Ala mutant, 3, was phosphorylated | – |
| KKNRNKLRQHSY [Peptide 1, 13-mer peptide N2B13, GluN2B1292–1304] | strongly repressed | phosphorylated in a similar manner | inhibitory effect on phosphorylation of peptide 2 ([8]; DAPK1, in vitro, data not shown): no in vitro inhibitory effect; also recorded: did not observe any effect |
| KKRPQRRYSNVF [peptide38, reference compound] | excellent substrate | – | – |
| QKNKLRISRQHSY [Peptide 4, 13-mer GluN2A peptide] | none of these peptides was phosphorylated | phosphorylated at a similar rate and to the same degree as the control peptide | – |
| QKNKLRISRQHSYDNIVDKPREL [Peptide 5, 23-mer GluN2A peptide] | none of these peptides was phosphorylated | phosphorylated at a similar rate and to the same degree as the control peptide | – |
